US4551547A, “Biocidal 2-aryl-1, 3-cyclopentanedione enol ester compounds” (Union Carbide Corporation, priority 1983, dated 1985)

How the values were obtained:
[1] = tested on: egg of the two-spotted mite; experiment: Mite Ovicide Test (eggs); assay type: in vivo, Tetranychus urticae (Koch); parameters: key to Miticidal, Egg: A: Excellent Control; B: Partial Control; No Control; conditions: Table II; unhatched eggs after four days
Experimental: Suspensions of the test compounds were prepared by dissolving one gram of compound in 50 milliliters of acetone in which had been dissolved 0.1 gram (10 percent of the weight of compound) of an alkylphenoxyethanol sufactant, as an emulsifying or dispersing agent. The resulting solution was mixed into 160 milliliters of water to give roughly 200 milliliters of a suspension containing the compound in finely divided form. The thus prepared stock suspension contained 0.5 percent by weight of compound. The test concentrations employed in the tests described below were obtained by diluting the stock suspension with water. The test procedures were as follows: The test organism was the egg of the two-spotted mite (Tetranychus urticae (Koch)), as obtained from adults reared on […] bean plants under controlled conditions of 80±5° F. and 50±5 percent relative humidity. Heavily infested leaves from a stock culture were placed on the primary leaves of two bean plants six to eight inches in height growing in a two-and-a-half inch clay pot. Females were allowed to oviposit for a period of 48 hours and the leaves of the infested plants were dipped in a solution containing 800 parts of tetraethyl pyrophosphate per million parts of water in order to destroy the reproductory forms and thus prevent further egg laying. […] The plants were allowed to dry thoroughly. The test compounds were formulated by diluting the stock suspension with water to give a suspension containing varying amounts of test compound per million parts of final formulation. The potted plants (one pot per compound) were placed on a revolving turntable and sprayed with 100-110 milliliters of test compound formulation by use of a DeVilbis spray gun set at 40 spig. air pressure. This application which lasted 30 seconds, was sufficient to wet the plants to run-off. As a control, 100-110 milliliters of a water solution containing acetone and emulsifier in the same concentrations as the test compound formulation, but containing no test compound, were also sprayed on plants infested with eggs. The sprayed plants were held at 80±5° F. and 50±5 percent relative humidity for four days, after which a microscopic examination was made of unhatched (dead) and hatched (living) eggs. In these tests the pesticidal activity of the compounds against mites and mite eggs was rated as follows: Tests were conducted in accordance with the procedures given at pages 17 to 21 supra. The results are expressed in the same manner as used in Table II, except with respect to miticidal activity. For mite adult and mite egg comparison purposes, results are given in parts per million (ppm) required for a 50 percent kill of mites or eggs, respectively.

Mustard = experiment: Preliminary herbicide seed germination test (pre-emergent), mustard; assay type: in vivo, Brassica pincea var. foliosa (Florida broadleaf); parameters: key: 5: no seedling emerged; 4: few seedlings emerged and/or very severe stunting; 3: moderate reduction in stand and/or moderate stunting.; 2: very slight reduction in stand and/or slight stunting; 1: no injury, seedlings appear no different with respect to stand or growth than untreated controls; conditions: Table II; ten to twelve days after application
Experimental: Suspensions of the test compounds were prepared by dissolving one gram of compound in 50 milliliters of acetone in which had been dissolved 0.1 gram (10 percent of the weight of compound) of an alkylphenoxyethanol sufactant, as an emulsifying or dispersing agent. The resulting solution was mixed into 160 milliliters of water to give roughly 200 milliliters of a suspension containing the compound in finely divided form. The thus prepared stock suspension contained 0.5 percent by weight of compound. The test concentrations employed in the tests described below were obtained by diluting the stock suspension with water. The test procedures were as follows:
The following seeds were used in this test:
Mustard--Brassica pincea var. foliosa (Florida broadleaf)
Two […] mixtures were prepared as follows:
Each of the above mixtures was rolled separately in 5 gallon containers for approximately one-half hour on ball mill to insure uniform mixing of seeds and soil. For each compound four 3-inch pots were filled with soil to within 11/2 inches of top of pots. To two of these pots were added 70 cc. of Mixture I. To the remaining 2 pots were added 70 cc. of Mixture II. The seed-soil mixture was tamped firmly, and the pots were removed to the greenhouse and watered lightly. About 2 hours after planting, 25 milliliters of the test formulation were added to one pot containing Mixture I and one pot containing Mixture II. An equal volume of a water solution containing acetone and an emulsifier in the same concentration as the herbicidal mixture but without the candidate herbicide was also added to each of the soil-seed mixtures. These pots are used as check or control units. The test compounds were formulated by diluting the stock suspension with water to obtain the desired concentration of the compound in parts per million of the final formulation. Each compound was tested at the same concentration. […] Ratings were made according to the following designations: […]

CCCCCCCCCCCCCCCC(=O)OC1=C(c2ccccc2C)C(=O)C2CCCCC12 (centres unmarked) [Compound 24]
Miticidal, Egg [1]: A | Pre-emergent Herbicidal, Mustard (Mustard): 3
